The target in this assay is T1, Cdc7 (BEV coexpressed huCDC7/DBF4) (Homo sapiens, UniProt O00311).
T1 construct: made in house; host or cells: BEV (baculovirus expression vector) co-expression; insect cells are implied but no cell line is named
As to the kind of experiment: Cdc7 enzyme inhibition assay ([33P]ATP, biotinylated peptide substrate, FlashPlate). The assay is classed as biochemical. Particulars: Table 3; enzyme inhibition data (Ki). As to the method: Cdc7 (BEV coexpressed huCDC7/DBF4) is prepared internally. Cdc7 assays are conducted as follows with final concentrations as listed. […] Reactions are quenched after 1 hr by the addition of 90 μL stop buffer (50 mM EDTA, 2M NaCl). […] (Ki) for exemplary compounds.

SMILES strings stand for the structures.

T1 sequence (O00311 whole entry): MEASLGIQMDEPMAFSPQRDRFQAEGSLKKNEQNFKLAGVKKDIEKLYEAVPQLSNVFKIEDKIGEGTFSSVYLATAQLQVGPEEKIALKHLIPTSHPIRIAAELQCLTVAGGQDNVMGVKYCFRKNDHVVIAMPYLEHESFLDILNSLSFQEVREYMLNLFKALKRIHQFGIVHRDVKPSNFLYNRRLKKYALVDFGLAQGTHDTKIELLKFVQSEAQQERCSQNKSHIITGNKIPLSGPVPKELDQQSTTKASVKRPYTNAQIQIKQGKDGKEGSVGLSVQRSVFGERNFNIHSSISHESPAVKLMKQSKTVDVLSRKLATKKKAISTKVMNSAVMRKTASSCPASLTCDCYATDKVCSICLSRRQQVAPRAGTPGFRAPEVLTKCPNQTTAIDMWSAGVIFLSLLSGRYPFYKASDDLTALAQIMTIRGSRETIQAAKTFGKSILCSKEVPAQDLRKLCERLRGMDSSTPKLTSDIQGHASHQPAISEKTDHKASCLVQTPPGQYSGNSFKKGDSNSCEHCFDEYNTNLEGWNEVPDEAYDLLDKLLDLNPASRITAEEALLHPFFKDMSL
T1 sequence (Q9UBU7 whole entry partner): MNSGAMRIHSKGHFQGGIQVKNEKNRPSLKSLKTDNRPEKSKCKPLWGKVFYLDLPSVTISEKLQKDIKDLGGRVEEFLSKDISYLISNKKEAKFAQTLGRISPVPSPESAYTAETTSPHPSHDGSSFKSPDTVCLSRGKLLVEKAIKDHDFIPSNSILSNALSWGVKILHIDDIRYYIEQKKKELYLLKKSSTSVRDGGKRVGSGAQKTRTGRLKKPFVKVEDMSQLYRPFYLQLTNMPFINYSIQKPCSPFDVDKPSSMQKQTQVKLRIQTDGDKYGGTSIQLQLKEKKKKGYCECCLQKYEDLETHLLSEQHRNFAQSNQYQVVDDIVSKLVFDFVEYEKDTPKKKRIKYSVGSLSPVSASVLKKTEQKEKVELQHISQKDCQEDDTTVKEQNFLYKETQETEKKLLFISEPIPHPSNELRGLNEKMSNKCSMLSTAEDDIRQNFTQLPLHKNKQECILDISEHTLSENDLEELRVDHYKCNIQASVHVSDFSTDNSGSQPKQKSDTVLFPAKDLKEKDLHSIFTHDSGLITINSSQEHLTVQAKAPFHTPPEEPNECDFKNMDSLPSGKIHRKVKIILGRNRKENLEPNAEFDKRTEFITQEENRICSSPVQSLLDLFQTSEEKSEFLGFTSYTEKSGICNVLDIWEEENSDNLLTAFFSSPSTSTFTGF

In the case of `O=C(CNC(=O)c1ccccc1)NC1CCCC(Nc2cc(-c3c[nH]c4ncccc34)cc(Cl)n2)C1` (stereo not shown) [Example 73, N-{2-[(3-{[6-chloro-4-(1H-pyrrolo[2,3-b]pyridin-3-yl)pyridin-2-yl]-amino}cyclohexyl)amino]-2-oxoethyl}benzamide], the Ki was under 10 nM.

As for `O=S(=O)(NC1CCCC(Nc2cc(-c3c[nH]c4ncccc34)cc(Cl)n2)C1)C1CC1` (stereo not shown) [Example 76, N-(3-{[6-chloro-4-(1H-pyrrolo[2,3-b]pyridin-3-yl)pyridin-2-yl]amino}cyclohexyl)cyclopropanesulfonamide], the inhibition constant Ki was under 10 nM.

`CCCS(=O)(=O)NC1CCCC(Nc2cc(-c3c[nH]c4ncccc34)cc(Cl)n2)C1` (stereo not shown) [Example 77, N-(3-{[6-chloro-4-(1H-pyrrolo[2,3-b]pyridin-3-yl)pyridin-2-yl]amino}cyclohexyl)propane-1-sulfonamide] had an inhibition constant Ki of under 10 nM.

In turn, `Cc1ccc(S(=O)(=O)NC2CCCC(Nc3cc(-c4c[nH]c5ncccc45)cc(Cl)n3)C2)cc1` (stereo not shown) [Example 78, N-(3-{[6-chloro-4-(1H-pyrrolo[2,3-b]pyridin-3-yl)pyridin-2-yl]amino}cyclohexyl)-4-methylbenzenesulfonamide] displayed an inhibition constant (Ki) of under 10 nM.

In turn, `CCNC(=O)NC1CCCC(Nc2cc(-c3c[nH]c4ncccc34)cc(Cl)n2)C1` (stereo not shown) [Example 79, 1-(3-{[6-chloro-4-(1H-pyrrolo[2,3-b]pyridin-3-yl)pyridin-2-yl]amino}cyclohexyl)-3-ethylurea] gave a Ki of under 10 nM.

In the case of `O=C(NC1CCCC1)NC1CCCC(Nc2cc(-c3c[nH]c4ncccc34)cc(Cl)n2)C1` (stereo not shown) [Example 80, 1-(3-{[6-chloro-4-(1H-pyrrolo[2,3-b]pyridin-3-yl)pyridin-2-yl]amino}cyclohexyl)-3-cyclopentylurea], the Ki is under 10 nM.

In the case of `CC(C)(CNc1cc(-c2c[nH]c3ncccc23)cc(Cl)n1)CNS(=O)(=O)c1cccnc1` [Example 81, N-(3-{[6-chloro-4-(1H-pyrrolo[2,3-b]pyridin-3-yl)pyridin-2-yl]amino}-2,2-dimethylpropyl)pyridine-3-sulfonamide], the Ki fell in the range of 10 to 100 nM.

Turning to `CC(C)(CNc1cc(-c2c[nH]c3ncccc23)cc(Cl)n1)CNS(=O)(=O)C1CC1` [Example 82, N-(3-{[6-chloro-4-(1H-pyrrolo[2,3-b]pyridin-3-yl)pyridin-2-yl]amino}-2,2-dimethylpropyl)cyclopropanesulfonamide], the Ki was under 10 nM.

The compound `O=S(=O)(NC1CCCC(Nc2cc(-c3c[nH]c4ncccc34)cc(Cl)n2)C1)c1cccs1` (stereo not shown) [Example 83, N-(3-{[6-chloro-4-(1H-pyrrolo[2,3-b]pyridin-3-yl)pyridin-2-yl]amino}cyclohexyl)thiophene-2-sulfonamide] yielded a Ki of under 10 nM.

For the compound `CCCCC(=O)Nc1cc(-c2c[nH]c3ncccc23)cc(Cl)n1` [Example 84, N-[6-chloro-4-(1H-pyrrolo[2,3-b]pyridin-3-yl)pyridin-2-yl]pentanamide], the Ki was under 10 nM.

In the case of `O=C(Nc1cc(-c2c[nH]c3ncccc23)cc(Cl)n1)C1CCCCC1` [Example 85, N-[6-chloro-4-(1H-pyrrolo[2,3-b]pyridin-3-yl)pyridin-2-yl]cyclohexanecarboxamide], the inhibitory constant (Ki) was under 10 nM.

Turning to `O=C(Nc1cc(-c2c[nH]c3ncccc23)cc(Cl)n1)c1ccccc1` [Example 86, N-[6-chloro-4-(1H-pyrrolo[2,3-b]pyridin-3-yl)pyridin-2-yl]benzamide], the inhibitory constant (Ki) is under 10 nM.

Turning to `O=S(=O)(NCCNc1cc(-c2c[nH]c3ncccc23)cc(Cl)n1)C1CC1` [Example 89, N-(2-{[6-chloro-4-(1H-pyrrolo[2,3-b]pyridin-3-yl)pyridin-2-yl]amino}ethyl)cyclopropanesulfonamide], the Ki was under 10 nM.

The compound `O=S(=O)(NCCNc1cc(-c2c[nH]c3ncccc23)cc(Cl)n1)c1cccnc1` [Example 90, N-(2-{[6-chloro-4-(1H-pyrrolo[2,3-b]pyridin-3-yl)pyridin-2-yl]amino}ethyl)pyridine-3-sulfonamide] returned an inhibitory constant (Ki) of under 10 nM.

Turning to `Clc1cc(-c2c[nH]c3ncccc23)cc(NC2CCC2)n1` [Example 92, 6-chloro-N-cyclobutyl-4-(1H-pyrrolo[2,3-b]pyridin-3-yl)pyridin-2-amine], the Ki is under 10 nM.

For the compound `CN(C)[C@H]1CC[C@H](Nc2cc(-c3c[nH]c4ncccc34)cc(Cl)n2)CC1` [Example 93, trans-N′-[6-chloro-4-(1H-pyrrolo[2,3-b]pyridin-3-yl)pyridin-2-yl]-N,N-dimethylcyclohexane-1,4-diamine], the Ki is under 10 nM.

`CCN1CCCC(CNc2cc(-c3c[nH]c4ncccc34)cc(Cl)n2)C1` (stereo not shown) [Example 94, 6-chloro-N-[(1-ethylpiperidin-3-yl)methyl]-4-(1H-pyrrolo[2,3-b]pyridin-3-yl)pyridin-2-amine]: the inhibitory constant (Ki) was under 10 nM.

`Clc1cc(-c2c[nH]c3ncccc23)cc(NCC2CCCN(C3CCC3)C2)n1` (stereo not shown) [Example 95, 6-chloro-N-[(1-cyclobutylpiperidin-3-yl)methyl]-4-(1H-pyrrolo[2,3-b]pyridin-3-yl)pyridin-2-amine] gave an inhibitory constant (Ki) of under 10 nM.

Compound `Clc1cc(-c2c[nH]c3ncccc23)cc(NCC2CCCN(Cc3cccnc3)C2)n1` (stereo not shown) [Example 96, 6-chloro-N-{[1-(pyridin-3-ylmethyl)piperidin-3-yl]methyl}-4-(1H-pyrrolo[2,3-b]pyridin-3-yl)pyridin-2-amine] came in with an inhibition constant Ki of under 10 nM.

`CS(=O)(=O)N1CCCC(CNc2cc(-c3c[nH]c4ncccc34)cc(Cl)n2)C1` (stereo not shown) [Example 97, 6-chloro-N-((1-(methylsulfonyl)piperidin-3-yl)methyl)-4-(1H-pyrrolo[2,3-b]pyridin-3-yl)pyridin-2-amine] returned a Ki of under 10 nM.

Compound `CCNC(=O)N1CCCC(CNc2cc(-c3c[nH]c4ncccc34)cc(Cl)n2)C1` (stereo not shown) [Example 98, 3-((6-chloro-4-(1H-pyrrolo[2,3-b]pyridin-3-yl)pyridin-2-ylamino)methyl)-N-ethylpiperidine-1-carboxamide] had a Ki of under 10 nM.

Turning to `CNC(=O)N[C@H]1CC[C@H](Nc2cc(-c3c[nH]c4ncccc34)cc(Cl)n2)CC1` [Example 99, 1-(trans-4-{[6-chloro-4-(1H-pyrrolo[2,3-b]pyridin-3-yl)pyridin-2-yl]amino}cyclohexyl)-3-methylurea], the Ki was under 10 nM.

`CC(=O)N1CCCC(CNc2cc(-c3c[nH]c4ncccc34)cc(Cl)n2)C1` (stereo not shown) [Example 100, 1-[3-({[6-chloro-4-(1H-pyrrolo[2,3-b]pyridin-3-yl)pyridin-2-yl]amino}methyl)piperidin-1-yl]ethanone] returned a Ki of under 10 nM.

In turn, `O=S(=O)(C1CC1)N1CCCC(CNc2cc(-c3c[nH]c4ncccc34)cc(Cl)n2)C1` (stereo not shown) [Example 101, 6-chloro-N-{[1-(cyclopropylsulfonyl)piperidin-3-yl]methyl}-4-(1H-pyrrolo[2,3-b]pyridin-3-yl)pyridin-2-amine] yielded an inhibition constant Ki of under 10 nM.

`O=C(C1CC1)N1CCCC(Nc2cc(-c3c[nH]c4ncccc34)cc(Cl)n2)C1` (stereo not shown) [Example 102, (3-{[6-chloro-4-(1H-pyrrolo[2,3-b]pyridin-3-yl)pyridin-2-yl]amino}piperidin-1-yl)(cyclopropyl)methanone] had a Ki of under 10 nM.

`Clc1cc(-c2c[nH]c3ncccc23)cc(NC2CCCC(NCC3CC3)C2)n1` (stereo not shown) [Example 103, N-[6-chloro-4-(1H-pyrrolo[2,3-b]pyridin-3-yl)pyridin-2-yl]-N′-(cyclopropylmethyl)cyclohexane-1,3-diamine] came in with an inhibition constant (Ki) of under 10 nM.

In turn, `Clc1cc(-c2c[nH]c3ncccc23)cc(NC2CCCN(C3CCC3)C2)n1` (stereo not shown) [Example 104, 6-chloro-N-(1-cyclobutylpiperidin-3-yl)-4-(1H-pyrrolo[2,3-b]pyridin-3-yl)pyridin-2-amine] displayed an inhibition constant Ki of under 10 nM.

`Clc1cc(-c2c[nH]c3ncccc23)cc(N[C@H]2CC[C@H](NC3CCC3)CC2)n1` [Example 105, trans-N-[6-chloro-4-(1H-pyrrolo[2,3-b]pyridin-3-yl)pyridin-2-yl]-N′-cyclobutylcyclohexane-1,4-diamine] displayed a Ki of under 10 nM.

`O=C(N[C@H]1CC[C@H](Nc2cc(-c3c[nH]c4ncccc34)cc(Cl)n2)CC1)[C@@H]1CCN1` [Example 106, (2S)—N-(trans-4-{[6-chloro-4-(1H-pyrrolo[2,3-b]pyridin-3-yl)pyridin-2-yl]amino}cyclohexyl)azetidine-2-carboxamide] had an inhibition constant Ki of under 10 nM.

The compound `O=C(Nc1cc(-c2c[nH]c3ncccc23)cc(Cl)n1)c1cccnc1` [Example 107, N-[6-chloro-4-(1H-pyrrolo[2,3-b]pyridin-3-yl)pyridin-2-yl]pyridine-3-carboxamide] came in with a Ki of under 10 nM.

`Clc1cc(-c2c[nH]c3ncccc23)cc(N[C@H]2CC[C@H](NCC3CC3)CC2)n1` [Example 109, trans-N-[6-chloro-4-(1H-pyrrolo[2,3-b]pyridin-3-yl)pyridin-2-yl]-N′-(cyclopropylmethyl)cyclohexane-1,4-diamine] returned a Ki of under 10 nM.

`O=C(Nc1cc(-c2c[nH]c3ncccc23)cc(Cl)n1)C1CCNCC1` [Example 112, N-[6-chloro-4-(1H-pyrrolo[2,3-b]pyridin-3-yl)pyridin-2-yl]piperidine-4-carboxamide]: the inhibitory constant (Ki) is under 10 nM.

As for `CC(=O)NCC(C)(C)CNc1cc(-c2c[nH]c3ncccc23)cc(Cl)n1` [Example 113, N-(3-{[6-chloro-4-(1H-pyrrolo[2,3-b]pyridin-3-yl)pyridin-2-yl]amino}-2,2-dimethylpropyl)acetamide], the Ki is under 10 nM.

For the compound `CN(C)CC(=O)N[C@H]1CC[C@H](Nc2cc(-c3c[nH]c4ncccc34)cc(Cl)n2)CC1` [Example 114, N-(trans-4-{[6-chloro-4-(1H-pyrrolo[2,3-b]pyridin-3-yl)pyridin-2-yl]amino}cyclohexyl)-N^2,N^2-dimethylglycinamide], the Ki is under 10 nM.

The record behind these values is patent US8435980B2 (AbbVie Inc., priority 2009, dated 2013).
